Source: paper PMC1940322, “The Effect of PPARα, PPARδ, PPARγ, and PPARpan Agonists on Body Weight, Body Mass, and Serum Lipid Profiles in Diet-Induced Obese AKR/J Mice” (PPAR Research, 2007)

How the values were obtained:
Type in all cases: in vivo
[1] = tested on: diet-induced obese (DIO) AKR/J mouse; assay: Serum clinical chemistry of terminal blood samples, DIO AKR/J mice; details: serum, end of treatment, 28 days
Description: (§1) On the final day of each experiment, a terminal blood sample (800–1000 μL) was obtained via cardiac puncture under isoflurane anesthesia. Whole blood was placed in a Terumo Capiject blood collection tube (Terumo Medical Corp., Elkton, Md, USA), allowed to sit at room temperature for 20 minutes then centrifuged to obtain serum. Serum levels of glucose, triglycerides, glycerol, nonesterified fatty acids, total cholesterol, the high-density lipoprotein cholesterol, and β-hydroxybutyrate were determined in all mice using an Olympus AU640 clinical chemistry immuno-analyzer (Olympus America Inc., Melville, NY, USA). In addition, liver weights were obtained following the terminal blood sample on the final day of the study and samples were used to determine liver fatty acid oxidation activity.

[2] = tested on: diet-induced obese (DIO) AKR/J mouse; assay: Body weight, body composition (qMR) and liver weight in diet-induced obese AKR/J mice; details: for BW day 0: baseline before treatment; for Fat mass day 28 / Lean mass day 28: qMR; for Liver weight: terminal collection
Description: The effects of monotherapy with selective PPAR agonists, combination therapy with PPARα and PPARδ, and treatment with PPARpan agonists were evaluated in four experiments in diet-induced obese (DIO) AKR/J mouse. The AKR/J mouse is a polyoma-susceptible strain originally utilized to study accelerated tumor development. This strain becomes obese and hyperinsulemic when fed a high fat diet. Age-matched, male AKR/J mice were allowed ad libitum access to Research Diet D12331 (Research Diet, Brunswick, NJ) at the Jackson Laboratories (Bar Harbor, ME) beginning at 6 weeks of age. The diet has an energy density of 5.56 kcal/g (58% kcal from fat; 26% kcal from carbohydrates, and 16% kcal from protein). The animals were allowed to become obese, achieving BW >40 grams before shipping to GlaxoSmithKline laboratory animal facility at 13 weeks of age. The mice were housed 4 per cage in standard shoebox cages and were fed the high fat diet until they reached approximately 50 grams. Age-matched lean control animals obtained from Jackson Laboratories were fed a diet of normal chow (3.04 kcal/g energy density, 12% kcal from fat, LabDiet 5001, St. Louis, MO) and used for comparison.
At the beginning of each study, the animals were weighed and body composition obtained using an EchoMRI-100 quantitative magnetic resonance (qMR, EchoMRI, Houston, TX) whole body composition analyzer. […] 16 lean control mice on standard chow were used as reference. All mice were dosed orally with vehicle (0.5% methylcellulose and 0.1% Tween 80, 10 mL/kg) for six days prior to the beginning of dosing for acclimation to handling and treatment before drug treatment was initiated.
(§2) In each experiment, BW of each animal was measured and recorded three times weekly throughout the treatment period. Body mass was obtained weekly on days 0, 7, 13, 20, and 27 of treatment. The effects of selective PPARα, δ, and γ agonists on food consumption were also assessed. Food consumption is expressed as total energy consumed (kcal) over a 24-period and as cumulative consumption over the course of the experiment.
as §1
(§3) Experiment 1 was designed to study the effects of a selective PPARα agonist and PPARδ agonist as mono and combination therapy. 48 mice were sorted into 6 groups and blocked such that initial BW and body composition were not different between groups. […] Two additional groups of mice were dosed for the first 14 days with either a PPARα agonist or a PPARδ agonist alone. At day 15, the PPARδ agonist was added to the treatment regimen of animals dosed with PPARα, and the PPARα agonist was added to the dosing material of animals previously dosed with PPARδ alone. The sixth group was dosed with both the PPARα and PPARδ agonists for the entire 28-day period. BW and food consumption were assessed 3 times per week and body composition was measured weekly.
In Experiment 2, 32 mice were sorted into 4 groups (n = 8/group) and dosed with vehicle and a selective PPARγ agonist (GW7845, 3 mg/kg) for 28 days. Rimonabant (RIM, 10 or 30 mg/kg, q.d.), a CB1 receptor antagonist, was used as a positive control for weight loss. […]

[3] = tested on: diet-induced obese (DIO) AKR/J mouse; assay: Food consumption in diet-induced obese AKR/J mice; details: compared to vehicle-treated animals; doses and regimen as in methods
Description: as §2
The fat content of Research Diets D12331 chow results in pellets that crumbles making it difficult to quantify food consumption thus, Research Diets D12451 chow (4.7 kcal/g (45% kcal from fat, 35% kcal from carbohydrates and 20% kcal from protein)) was used in studies where food consumption was determined as these pellets are more solid. The animals were transitioned two weeks before compound dosing from Research Diets D12331 chow to Research Diets D12451 chow. Previous experiments (data not presented) have shown that animals fed this diet maintain the same BW and fat mass level as observed at the time of transition.
as §3
In Experiment 2, 32 mice were sorted into 4 groups (n = 8/group) and dosed with vehicle and a selective PPARγ agonist (GW7845, 3 mg/kg) for 28 days. Rimonabant (RIM, 10 or 30 mg/kg, q.d.), a CB1 receptor antagonist, was used as a positive control for weight loss. As in Experiment 1, BW and food consumption were determined 3 times per week and body composition was measured weekly.

With Cc1c(C(=O)NN2CCCCC2)nn(-c2ccc(Cl)cc2Cl)c1-c1ccc(Cl)cc1 [RIM, Rimonabant, reference compound] the Cholesterol ([1]; 10 mg/kg oral) was 147.3 ± 9.1 mg/dL, the Glucose ([1]; 10 mg/kg oral) was 230.1 ± 16.6 mg/dL and the HDL-C ([1]; 10 mg/kg oral) was 95.1 ± 4.6 mg/dL. For the same compound, the Insulin ([1]; 10 mg/kg oral) was 7.2 ± 2.5 ng/mL, the NEFA ([1]; 10 mg/kg oral) was 0.8 ± 0.05 mEq/L and the Triglyceride ([1]; 10 mg/kg oral) was 181.4 ± 36.1 mg/dL. For the same compound, the bHBA ([1]; 10 mg/kg oral) was 2.5 ± 0.2 mg/dL, the Cholesterol ([1]; 30 mg/kg oral) was 143.4 ± 4.0 mg/dL and the Glucose ([1]; 30 mg/kg oral) was 215.3 ± 13.0 mg/dL. The HDL-C ([1]; 30 mg/kg oral) was 116.9 ± 2.6 mg/dL, the Insulin ([1]; 30 mg/kg oral) was 3.4 ± 0.7 ng/mL and the NEFA ([1]; 30 mg/kg oral) was 0.9 ± 0.02 mEq/L. For the same compound, the Triglyceride ([1]; 30 mg/kg oral) was 159.7 ± 16.1 mg/dL, the bHBA ([1]; 30 mg/kg oral) was 1.8 ± 0.2 mg/dL and the “BW day 28” value ([2]; 10 mg/kg oral, 28 days) was 44.1 ± 1.3 grams. The “BW day 28” value ([2]; 30 mg/kg oral, 28 days) was 41.8 ± 0.5 grams, the “effect on FM (in words)” value ([2]; 28 days, doses as in methods) was “decreased FM in a dose-dependent manner” and the “BW day 0” value ([2]; group dosed 10 mg/kg oral) was 50.6 ± 0.8 grams. For the same compound, the “BW day 0” value ([2]; group dosed 30 mg/kg oral) was 51.0 ± 0.7 grams, the “reduction of BW” value ([2]; highest dose (30 mg/kg), within the first 10 days of treatment) was 17% and the “effect on BW (in words)” value ([2]; oral, 28 days, GW9578 1, GW0742 30, GW7845 3, RIM 10 and 30 mg/kg, PPARpan agonists) was “significant, dose-related decreases of BW”. For the same compound, the “Fat mass day 28” value ([2]; 10 mg/kg oral, 28 days) was 15.0 ± 0.9 grams, the “Lean mass day 28” value ([2]; 10 mg/kg oral, 28 days) was 25.2 ± 0.8 grams and the “Fat mass day 28” value ([2]; 30 mg/kg oral, 28 days) was 11.6 ± 0.3 grams. The “Lean mass day 28” value ([2]; 30 mg/kg oral, 28 days) was 26.5 ± 0.5 grams, the Liver weight ([2]; 10 mg/kg oral, 28 days) was 2.0 ± 0.1 grams and the Liver weight ([2]; 30 mg/kg oral, 28 days) was 2.0 ± 0.1 grams. For the same compound, the “effect on food consumption (in words)” value [3] was “dose-related decreases in food consumption”.
